# Source: US20060079453A1, “Hla binding peptides and their uses” (priority 2002, published 2006)
# No end group written: not given here.
# Tests used:
# Experiment in all cases: biochemical
# Format in all cases: binding
# HLA-DR DRB1*0802 (DR8) = HLA-DR DRB1*0802 (DR8) (Homo sapiens, UniProt P01903+P01911, A100R/A103L/A169T/F76Y/H45Y/I96F/K41T/L162R/M171V/P40S/Q125H/Q178H/Q39Y/Q99D/R218S/R42G/S66Y/V115G/W38E)
# HLA-DR DRB3*0101 (DR52) = HLA-DR DRB3*0101 (DR52) (Homo sapiens, UniProt P01903+P79483)
# HLA-DR DRB1*0101 (DR1) = HLA-DR DRB1*0101 (DR1) (Homo sapiens, UniProt P01903+P01911, A100R/D57E/F55L/F60I/F76Y/I96L/L162R/M171V/P40L/Q125E/R42F/V115G/Y59C); conditions: DRB1 *0101
# HLA-DR DRB1*1101 (DR11) = HLA-DR DRB1*1101 (DR11) (Homo sapiens, UniProt P01903+P01911, A100R/A169T/A87E/I96F/K41T/L162R/M171V/P40S/Q125H/Q178H/Q39Y/Q99D/R42S/S66Y/T262R/V115G/W38E); conditions: DRB1 *1101
# Chain of HLA-DR DRB1*1101 (DR11) (P01903 26-254 limits assumed, other chains not shown): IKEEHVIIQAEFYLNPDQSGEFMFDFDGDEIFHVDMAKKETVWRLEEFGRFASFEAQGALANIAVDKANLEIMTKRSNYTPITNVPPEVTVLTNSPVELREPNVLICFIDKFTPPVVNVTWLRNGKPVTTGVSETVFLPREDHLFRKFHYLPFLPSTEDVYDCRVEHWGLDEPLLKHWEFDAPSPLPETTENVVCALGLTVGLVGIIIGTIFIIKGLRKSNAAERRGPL
# HLA-DR DRB1*0301 (DR3) = HLA-DR DRB1*0301 (DR3) (Homo sapiens, UniProt P01903+P01911, A100K/A102G/A103R/A169T/F55Y/I96L/K41T/L162R/M171V/P40S/Q125H/Q178H/Q39Y/R42S/S66N/T106N/T262R/W38E/Y61H)
# Chain of HLA-DR DRB1*0301 (DR3) (P01903 26-254 limits assumed, other chains not shown): as above
# HLA-DR DRB1*0901 (DR9) = HLA-DR DRB1*0901 (DR9) (Homo sapiens, UniProt P01903+P01911, A100R/A103E/D57H/D86V/F55Y/F60I/F76Y/I96F/K127E/L162R/M171V/P40D/Q125H/Q99R/R33Q/R42F/S133A/S66N/T210M/V115G/W38K/Y107V/Y59G/Y89S); conditions: DRB1 *0901
# HLA-DR DRB5*0101 (DR51) = HLA-DR DRB5*0101 (DR51) (Homo sapiens, UniProt P01903+Q30154); conditions: DRB5 *0101
# HLA-DR DRB1*0405 (DR4) = HLA-DR DRB1*0405 (DR4) (Homo sapiens, UniProt P01903+P01911, A100R/A169T/D86S/F76Y/I96L/K127E/L162R/M171V/N62H/P40V/Q125Y/R42H/S133A/S149N/S66Y/V115G/V209L/W38E); conditions: DRB1 *0405
# HLA-DR DRB4*0101 (DR53) = HLA-DR DRB4*0101 (DR53) (Homo sapiens, UniProt P01903+P13762, G164S); conditions: DRB4 *0101
# HLA-DR DRB1*1302 (DR13) = HLA-DR DRB1*1302 (DR13) (Homo sapiens, UniProt P01903+P01911, A100E/A169T/K41T/L162R/M171V/P40S/Q125H/Q178H/Q39Y/Q99D/R42S/S66N/T262R/V115G/W38E/Y61H); conditions: DRBI *1302
# Chain of HLA-DR DRB1*1302 (DR13) (P01903 26-254 limits assumed, other chains not shown): as above
# HLA-DR DRB1*0701 (DR7) = HLA-DR DRB1*0701 (DR7) (Homo sapiens, UniProt P01903+P01911, A100R/A102G/A103Q/D57E/D86V/E43K/F76Y/K127E/L162R/M171V/P40G/Q125H/Q99D/R33Q/R42Y/R54Q/S133A/S66F/T210M/V115G/Y107V/Y59L/Y89S); conditions: DRB1 *0701
# HLA-DR DRB1*0401 (DR4) = HLA-DR DRB1*0401 (DR4) (Homo sapiens, UniProt P01903+P01911, A100K/A169T/F76Y/I96L/K127E/L162R/M171V/N62H/P40V/Q125Y/R42H/S133A/S149N/S66Y/V115G/V209L/W38E); conditions: DRB1 *0401
# HLA-DR DRB1*1501 (DR15) = HLA-DR DRB1*1501 (DR15) (Homo sapiens, UniProt P01903+P01911); conditions: DRBI *1501
Sequence,IC50 (HLA-DR DRB1*0802 (DR8)),IC50 (HLA-DR DRB3*0101 (DR52)),IC50 (HLA-DR DRB1*0101 (DR1)),IC50 (HLA-DR DRB1*1101 (DR11)),IC50 (HLA-DR DRB1*0301 (DR3)),IC50 (HLA-DR DRB1*0901 (DR9)),IC50 (HLA-DR DRB5*0101 (DR51)),IC50 (HLA-DR DRB1*0405 (DR4)),IC50 (HLA-DR DRB4*0101 (DR53)),IC50 (HLA-DR DRB1*1302 (DR13)),IC50 (HLA-DR DRB1*0701 (DR7)),IC50 (HLA-DR DRB1*0401 (DR4)),IC50 (HLA-DR DRB1*1501 (DR15))
AVTIYEMLQNIFAIF,6.87 µM,2.83 µM,0.017 µM,29.7 µM,23.7 µM,4.54 µM,14 µM,0.163 µM,1.12 µM,0.109 µM,,,
EQTTTSITSLYQLEN,> 54.4 µM,> 18.7 µM,19 µM,> 10.5 µM,> 144 µM,17.4 µM,48.5 µM,0.272 µM,29.6 µM,,2.23 µM,0.17 µM,
FLRSVFANSLVYGAS,13.4 µM,158 µM,0.0043 µM,0.973 µM,,15.1 µM,0.141 µM,0.059 µM,,0.0056 µM,0.016 µM,0.0067 µM,0.013 µM
FVNQHLCGSDLVEAL [FVNQHLCGSDLVEAL],> 54.4 µM,10 µM,0.117 µM,> 1110 µM,> 74.8 µM,> 63 µM,> 43.3 µM,14.9 µM,24.5 µM,20.2 µM,,19.2 µM,
GSHLVEALYLVTGER,> 54.4 µM,18.2 µM,0.645 µM,> 10.5 µM,> 176 µM,> 63 µM,11.4 µM,14.4 µM,0.225 µM,12.2 µM,0.553 µM,15.8 µM,
HLKRYYGRILHYLKA,0.237 µM,6.61 µM,0.026 µM,,3.71 µM,2.9 µM,0.0023 µM,0.086 µM,0.022 µM,0.868 µM,0.214 µM,,0.00069 µM
KLSQELHKLQTYPRT,28.7 µM,> 263 µM,0.019 µM,2.38 µM,197 µM,19.1 µM,0.037 µM,12.2 µM,0.87 µM,> 12.6 µM,85.5 µM,19.7 µM,
LFFYRKSVWSKLQSI,0.065 µM,5.91 µM,0.019 µM,0.012 µM,30.2 µM,,0.018 µM,0.084 µM,1.93 µM,0.121 µM,0.084 µM,0.913 µM,0.02 µM
LGFLQRSSNCQSQKL,0.405 µM,> 1750 µM,,0.604 µM,4.89 µM,,0.508 µM,0.228 µM,0.124 µM,0.131 µM,0.305 µM,0.0081 µM,
LYFVKVDVTGAYDTI,0.413 µM,0.016 µM,0.016 µM,0.221 µM,0.0096 µM,,4.96 µM,0.014 µM,0.022 µM,0.079 µM,5.89 µM,0.0028 µM,9.75 µM
NSLVYGASDSNIYDL,> 33.3 µM,31.6 µM,,> 15.4 µM,> 51.4 µM,> 59.5 µM,> 9.51 µM,1.23 µM,3.29 µM,,0.297 µM,0.24 µM,0.971 µM
QCQKLLWQLNGRLEY,2.52 µM,8.71 µM,,1.64 µM,133 µM,4.67 µM,0.924 µM,1 µM,0.209 µM,,3.7 µM,0.36 µM,
